Reference: PubChem BioAssay (NCI)
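Protocol summary: plate cells (96-well), add compound at 5 concentrations, incubate 48 h, interpolate endpoints linearly. TGI: concentration producing complete growth inhibition.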

Assays:
Experiment in all cases: NCI-60 cell line screen, 48 h
[1] = tested on: SR leukemia
[2] = tested on: OVCAR-4 ovarian
[3] = tested on: TK-10 renal
[4] = tested on: A549 NSCLC
[5] = tested on: MOLT-4 leukemia
[6] = tested on: LXFL 529 NSCLC
[7] = tested on: HCC-2998 colon
[8] = tested on: SF-268 CNS
[9] = tested on: HL-60(TB) leukemia
[10] = tested on: M14 melanoma
[11] = tested on: 786-0 renal
[12] = tested on: DMS 114 small cell lung
[13] = tested on: HOP-62 NSCLC
[14] = tested on: MALME-3M melanoma
[15] = tested on: U251 CNS
[16] = tested on: SK-OV-3 ovarian
[17] = tested on: UACC-257 melanoma
[18] = tested on: RPMI-8226 leukemia
[19] = tested on: SK-MEL-28 melanoma
[20] = tested on: COLO 205 colon
[21] = tested on: SK-MEL-2 melanoma
[22] = tested on: HT29 colon
[23] = tested on: OVCAR-3 ovarian
[24] = tested on: OVCAR-5 ovarian
[25] = tested on: NCI-H23 lung
[26] = tested on: SF-295 CNS
[27] = tested on: SNB-78 CNS
[28] = tested on: HCT-116 colon
[29] = tested on: CAKI-1 renal
[30] = tested on: EKVX NSCLC
[31] = tested on: SNB-75 CNS
[32] = tested on: UACC-62 melanoma
[33] = tested on: SW-620 colon
[34] = tested on: M19-MEL melanoma
[35] = tested on: KM20L2 colon
[36] = tested on: UO-31 renal
[37] = tested on: SNB-19 CNS
[38] = tested on: NCI-H226 lung
[39] = tested on: XF 498 CNS
[40] = tested on: NCI-H522 lung
[41] = tested on: K-562 leukemia
[42] = tested on: OVCAR-8 ovarian
[43] = tested on: CCRF-CEM leukemia
[44] = tested on: ACHN renal
[45] = tested on: NCI-H460 lung
[46] = tested on: DLD-1 colon
[47] = tested on: KM12 colon
[48] = tested on: A498 renal
[49] = tested on: HOP-92 NSCLC
[50] = tested on: SN12C renal
[51] = tested on: IGROV1 ovarian
[52] = tested on: LOX IMVI melanoma
[53] = tested on: SK-MEL-5 melanoma
[54] = tested on: SF-539 CNS
[55] = tested on: DMS 273 small cell lung
[56] = tested on: HCT-15 colon

Measured: TGI

COc1cc2ccn3c4cc(OC)c(OC)cc4cc3c2cc1OC
not listed: [51] | [52] | [53] | [54] | [55] | [56]
> 100 µM: all other assays above

Clc1ccc2c(Cl)ncnc2c1
not listed: [6] | [12] | [27]
> 100 µM: all other assays above
